Results from patent US11535599B2, “Benzisoxazole derivative” (Sumitomo Pharma Co., Ltd., priority 2020, dated 2022).

Experiments:
[1] = tested on: unilateral lesion model of nigrostriatal dopamine neuron induced with 6-OHDA; test: Anti-tremor effect in 6-OHDA unilateral lesion model; format: in vivo, rat; conditions: 3 mg/kg oral, counted 10 minutes one hour later
From the text: A unilateral lesion model of nigrostriatal dopamine neuron induced with 6-OHDA is broadly used for evaluating the drug efficacy for treating Parkinson's disease, as shown in Test 3. In addition, the present model is known to present with jaw tremor which corresponds to the tremor frequency in a patient of Parkinson's disease, thus which is also expected to be a tremor model in Parkinson's disease. With the present model, the effect of the present compound for inhibiting the tremor in Parkinson's disease was evaluated. According to the procedure described in Test 3, a unilateral lesion model of nigrostriatal dopamine neuron was prepared. The compound of Example 13 (3 mg/kg) was orally administered to the model rat. One hour later, the number of tremulous jaw movements was counted for 10 minutes.

[2] = tested on: oxaliplatin chemotherapy-induced peripheral neuropathy model; test: Anti-allodynia effect in chemotherapy-induced peripheral neuropathy model (acetone test); format: in vivo, rat; conditions: Example 13 100 mg/kg oral once a day 17 times; duloxetine 30 mg/kg oral single
From the text: As one of chemotherapy-induced peripheral neuropathy, sensory disturbance due to neuropathy caused by a platinating agent that is an anticancer agent such as cisplatin and oxaliplatin is known, and the symptom is difficult to be recovered even after the medication is discontinued. The therapeutic effect for sensory disturbance caused by repetitive administration of oxaliplatin was studied in the present test.
To male Crl: CD (SD) rats (7 weeks old) (CHARLES RIVER LABORATORIES JAPAN, INC.), oxaliplatin (5 mg/kg) was intraperitoneally administered for the two consecutive days in a week, totally 6 times, to prepare chemotherapy-induced peripheral neuropathy models. The compound of Example 13 (100 mg/kg) was repeatedly orally administered once a day, totally 17 times. […] In the acetone test, 0.1 mL of acetone was sprayed to the foot sole of the rat hind paw, and the reaction was evaluated according a scoring (Cold Score). When there was no reaction for 20 seconds after spraying acetone, Score 0 was recorded and the observation was stopped. When there was any reaction for the 20 seconds, the observation was continued until 40 seconds after spraying, and the score was recorded according to the evaluation scale. The acetone spray was done twice each for right and left hind paws, and the total score was calculated. […]

SMILES: C[C@H](c1noc2ccccc12)S(N)(=O)=O [Example 13, (1R)-1-(1,2-benzoxazol-3-yl)ethane-1-sulfonamide]
- number of tremulous jaw movements [1]: significantly decreased the number of tremulous jaw movements per unit time
- Cold Score in acetone test [2]: significantly lower Cold Score
